Experimental data: patent US11173151B2, “Substituted triazole derivatives and uses thereof” (BAYER AKTIENGESELLSCHAFT, priority 2017, dated 2021)

Tests used:
human V2 receptor = molecular target: T1, human V2 receptor (Homo sapiens, UniProt P30518); assay: Cellular in vitro assay for determining vasopressin receptor activity, V2 receptor cell line (CHO, CRE-luciferase); assay type: cell-based; conditions: CHO cell line transfected with human V2 receptor; [Arg8]-vasopressin at EC50 concentration, 3 hours; read-out: IC50 hV2
T1 construct: expressed in transfected cells; host or cells: CHO K1 (ATCC) expressing firefly luciferase under a CRE-responsive promoter

human V1a receptor = molecular target: T2, human V1a receptor (Homo sapiens, UniProt P37288); assay: Cellular in vitro assay for determining vasopressin receptor activity, V1a receptor cell line (CHO, aequorin luminescence); assay type: cell-based; conditions: for IC50: CHO cell line transfected with human V1a receptor, [Arg]-vasopressin at EC50 concentration, read-out: IC50 hV1a; for ratio IC50 hV2/hV1a: selectivity ratio IC50 hV2 / IC50 hV1a
T2 construct: expressed in transfected cells; host or cells: CHO K1 (ATCC), also stably transfected with a modified aequorin
Method in brief: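 Antagonism is measured in stable CHO K1 transfectants coexpressing the Gαq-coupled receptor and a calcium-sensitive aequorin photoprotein. Agonist challenge uses [Arg]-vasopressin at EC50 after a 10-minute compound exposure; IC50 values come from the luminescence signal.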

T2 sequence (P37288 whole entry): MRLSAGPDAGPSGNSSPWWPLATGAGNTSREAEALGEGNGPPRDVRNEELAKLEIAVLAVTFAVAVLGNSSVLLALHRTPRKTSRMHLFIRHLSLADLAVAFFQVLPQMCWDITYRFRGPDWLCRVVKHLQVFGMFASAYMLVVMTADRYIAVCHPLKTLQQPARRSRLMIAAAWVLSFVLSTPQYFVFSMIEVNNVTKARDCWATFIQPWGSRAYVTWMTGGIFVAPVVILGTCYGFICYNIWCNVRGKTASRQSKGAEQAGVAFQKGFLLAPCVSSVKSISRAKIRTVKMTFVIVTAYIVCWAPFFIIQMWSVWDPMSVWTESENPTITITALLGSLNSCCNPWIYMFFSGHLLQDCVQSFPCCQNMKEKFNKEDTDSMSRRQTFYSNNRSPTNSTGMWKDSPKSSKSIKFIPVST
T1 sequence (P30518 whole entry): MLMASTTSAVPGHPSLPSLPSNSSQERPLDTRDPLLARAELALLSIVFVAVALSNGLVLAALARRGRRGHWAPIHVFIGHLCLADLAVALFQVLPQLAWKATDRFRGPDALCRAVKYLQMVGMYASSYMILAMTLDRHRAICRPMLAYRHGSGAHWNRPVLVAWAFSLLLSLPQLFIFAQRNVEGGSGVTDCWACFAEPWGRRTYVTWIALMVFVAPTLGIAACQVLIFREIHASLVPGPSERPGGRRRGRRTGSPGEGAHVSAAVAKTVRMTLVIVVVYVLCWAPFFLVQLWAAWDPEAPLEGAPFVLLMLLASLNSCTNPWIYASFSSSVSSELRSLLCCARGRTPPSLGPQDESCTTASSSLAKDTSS

Row | IC50 (human V2 receptor) [nM] | IC50 (human V1a receptor) [nM] | ratio IC50 hV2/hV1a (human V1a receptor) | Compound
1 | 185 | 0.58 | 321.7 | Nc1ccc(NC(=O)c2ccccc2-n2cnc(Cn3nc(-c4ccc(Cl)cc4)n(C[C@H](O)C(F)(F)F)c3=O)n2)cc1 [Example 205, N-(4-Aminophenyl)-2-[3-({3-(4-chlorophenyl)-5-oxo-4-[(2S)-3,3,3-trifluoro-2-hydroxypropyl]-4,5-dihydro-1H-1,2,4-triazol-1-yl}methyl)-1H-1,2,4-triazol-1-yl]benzamide]
2 | 835 | 1.45 | 575.9 | Cn1nccc1CNC(=O)c1ccccc1-n1cnc(Cn2nc(-c3ccc(Cl)cc3)n(C[C@H](O)C(F)(F)F)c2=O)n1 [Example 206, 2-[3-({3-(4-Chlorophenyl)-5-oxo-4-[(2S)-3,3,3-trifluoro-2-hydroxypropyl]-4,5-dihydro-1H-1,2,4-triazol-1-yl}methyl)-1H-1,2,4-triazol-1-yl]-N-[(1-methyl-1H-pyrazol-5-yl)methyl]benzamide]
3 | 305 | 5.35 | 57.0 | O=C(NCc1cc(F)ccc1F)c1ccccc1-n1cnc(Cn2nc(-c3ccc(Cl)cc3)n(C[C@H](O)C(F)(F)F)c2=O)n1 [Example 207, 2-[3-({3-(4-chlorophenyl)-5-oxo-4-[(2S)-3,3,3-trifluoro-2-hydroxypropyl]-4,5-dihydro-1H-1,2,4-triazol-1-yl}methyl)-1H-1,2,4-triazol-1-yl]-N-(2,5-difluorobenzyl)benzamide]
4 | 130 | 5.65 | 23.0 | Cc1ccc(CNC(=O)c2ccccc2-n2cnc(Cn3nc(-c4ccc(Cl)cc4)n(C[C@H](O)C(F)(F)F)c3=O)n2)o1 [Example 209, 2-[3-({3-(4-Chlorophenyl)-5-oxo-4-[(2S)-3,3,3-trifluoro-2-hydroxypropyl]-4,5-dihydro-1H-1,2,4-triazol-1-yl}methyl)-1H-1,2,4-triazol-1-yl]-N-[(5-methylfuran-2-yl)methyl]benzamide]
5 | 755 | 1.65 | 457.6 | Cn1nccc1NC(=O)c1ccccc1-n1cnc(Cn2nc(-c3ccc(Cl)cc3)n(C[C@H](O)C(F)(F)F)c2=O)n1 [Example 210, 2-[3-({3-(4-Chlorophenyl)-5-oxo-4-[(2S)-3,3,3-trifluoro-2-hydroxypropyl]-4,5-dihydro-1H-1,2,4-triazol-1-yl}methyl)-1H-1,2,4-triazol-1-yl]-N-(1-methyl-1H-pyrazol-5-yl)benzamide]
6 | 170 | 6.65 | 25.6 | O=C(Nc1ccc(F)cn1)c1ccccc1-n1cnc(Cn2nc(-c3ccc(Cl)cc3)n(C[C@H](O)C(F)(F)F)c2=O)n1 [Example 211, 2-[3-({3-(4-Chlorophenyl)-5-oxo-4-[(2S)-3,3,3-trifluoro-2-hydroxypropyl]-4,5-dihydro-1H-1,2,4-triazol-1-yl}methyl)-1H-1,2,4-triazol-1-yl]-N-(5-fluoropyridin-2-yl)benzamide]
7 | 575 | 23.5 | 24.5 | O=C(Nc1cc(O)[nH]n1)c1ccccc1-n1cnc(Cn2nc(-c3ccc(Cl)cc3)n(C[C@H](O)C(F)(F)F)c2=O)n1 [Example 212, 2-[3-({3-(4-Chlorophenyl)-5-oxo-4-[(2S)-3,3,3-trifluoro-2-hydroxypropyl]-4,5-dihydro-1H-1,2,4-triazol-1-yl}methyl)-1H-1,2,4-triazol-1-yl]-N-(5-hydroxy-1H-pyrazol-3-yl)benzamide]
8 | 1340 | 7.55 | 178.1 | Cc1cc(NC(=O)c2ccccc2-n2cnc(Cn3nc(-c4ccc(Cl)cc4)n(C[C@H](O)C(F)(F)F)c3=O)n2)n(C)n1 [Example 213, 2-[3-({3-(4-Chlorophenyl)-5-oxo-4-[(2S)-3,3,3-trifluoro-2-hydroxypropyl]-4,5-dihydro-1H-1,2,4-triazol-1-yl}methyl)-1H-1,2,4-triazol-1-yl]-N-(1,3-dimethyl-1H-pyrazol-5-yl)benzamide]
9 | 1410 | 1.65 | 854.5 | Cc1n[nH]c(C)c1NC(=O)c1ccccc1-n1cnc(Cn2nc(-c3ccc(Cl)cc3)n(C[C@H](O)C(F)(F)F)c2=O)n1 [Example 214, 2-[3-({3-(4-Chlorophenyl)-5-oxo-4-[(2S)-3,3,3-trifluoro-2-hydroxypropyl]-4,5-dihydro-1H-1,2,4-triazol-1-yl}methyl)-1H-1,2,4-triazol-1-yl]-N-(3,5-dimethyl-1H-pyrazol-4-yl)benzamide]
10 | 1200 | 11.7 | 102.1 | CCn1nccc1NC(=O)c1ccccc1-n1cnc(Cn2nc(-c3ccc(Cl)cc3)n(C[C@H](O)C(F)(F)F)c2=O)n1 [Example 215, 2-[3-({3-(4-Chlorophenyl)-5-oxo-4-[(2S)-3,3,3-trifluoro-2-hydroxypropyl]-4,5-dihydro-1H-1,2,4-triazol-1-yl}methyl)-1H-1,2,4-triazol-1-yl]-N-(1-ethyl-1H-pyrazol-5-yl)benzamide]
11 | 170 | 12 | 14.2 | CC(NC(=O)c1ccccc1-n1cnc(Cn2nc(-c3ccc(Cl)cc3)n(C[C@H](O)C(F)(F)F)c2=O)n1)c1ccon1 (stereo partly drawn) [Example 216, 2-[3-({3-(4-Chlorophenyl)-5-oxo-4-[(2S)-3,3,3-trifluoro-2-hydroxypropyl]-4,5-dihydro-1H-1,2,4-triazol-1-yl}methyl)-1H-1,2,4-triazol-1-yl]-N-[1-(1,2-oxazol-3-yl)ethyl]benzamide]
12 | 93.5 | 3.95 | 23.7 | O=C(Nc1ccc(F)cc1O)c1ccccc1-n1cnc(Cn2nc(-c3ccc(Cl)cc3)n(C[C@H](O)C(F)(F)F)c2=O)n1 [Example 217, 2-[3-({3-(4-Chlorophenyl)-5-oxo-4-[(2S)-3,3,3-trifluoro-2-hydroxypropyl]-4,5-dihydro-1H-1,2,4-triazol-1-yl}methyl)-1H-1,2,4-triazol-1-yl]-N-(4-fluoro-2-hydroxyphenyl)benzamide]
13 | 7.8 | 0.32 | 24.4 | O=C(Nc1n[nH]cc1Cl)c1ccccc1-n1cnc(Cn2nc(-c3ccc(Cl)cc3)n(C[C@H](O)C(F)(F)F)c2=O)n1 [Example 218, 2-[3-({3-(4-Chlorophenyl)-5-oxo-4-[(2S)-3,3,3-trifluoro-2-hydroxypropyl]-4,5-dihydro-1H-1,2,4-triazol-1-yl}methyl)-1H-1,2,4-triazol-1-yl]-N-(4-chloro-1H-pyrazol-3-yl)benzamide]
14 | 41.5 | 21 | 2.0 | O=C(Nc1cccc[n+]1[O-])c1ccccc1-n1cnc(Cn2nc(-c3ccc(Cl)cc3)n(C[C@H](O)C(F)(F)F)c2=O)n1 [Example 219, 2-[3-({3-(4-Chlorophenyl)-5-oxo-4-[(2S)-3,3,3-trifluoro-2-hydroxypropyl]-4,5-dihydro-1H-1,2,4-triazol-1-yl}methyl)-1H-1,2,4-triazol-1-yl]-N-(1-oxidopyridin-2-yl)benzamide]
15 | 215 | 3.65 | 58.9 | Cc1cncc(NC(=O)c2ccccc2-n2cnc(Cn3nc(-c4ccc(Cl)cc4)n(C[C@H](O)C(F)(F)F)c3=O)n2)c1 [Example 220, 2-[3-({3-(4-Chlorophenyl)-5-oxo-4-[(2S)-3,3,3-trifluoro-2-hydroxypropyl]-4,5-dihydro-1H-1,2,4-triazol-1-yl}methyl)-1H-1,2,4-triazol-1-yl]-N-(5-methylpyridin-3-yl)benzamide]
16 | 460 | 4.95 | 92.9 | Cc1ncccc1NC(=O)c1ccccc1-n1cnc(Cn2nc(-c3ccc(Cl)cc3)n(C[C@H](O)C(F)(F)F)c2=O)n1 [Example 221, 2-[3-({3-(4-Chlorophenyl)-5-oxo-4-[(2S)-3,3,3-trifluoro-2-hydroxypropyl]-4,5-dihydro-1H-1,2,4-triazol-1-yl}methyl)-1H-1,2,4-triazol-1-yl]-N-(2-methylpyridin-3-yl)benzamide]
17 | 185 | 4.85 | 38.1 | CC1CCC(C)C1NC(=O)c1ccccc1-n1cnc(Cn2nc(-c3ccc(Cl)cc3)n(C[C@H](O)C(F)(F)F)c2=O)n1 (stereo partly drawn) [Example 222, 2-[3-({3-(4-Chlorophenyl)-5-oxo-4-[(2S)-3,3,3-trifluoro-2-hydroxypropyl]-4,5-dihydro-1H-1,2,4-triazol-1-yl}methyl)-1H-1,2,4-triazol-1-yl]-N-(2,5-dimethylcyclopentyl)benzamide]
18 | 1.15 | 1.5 | 0.8 | O=C(Nc1nccs1)c1ccccc1-n1cnc(Cn2nc(-c3ccc(Cl)cc3)n(C[C@H](O)C(F)(F)F)c2=O)n1 [Example 223, 2-[3-({3-(4-Chlorophenyl)-5-oxo-4-[(2S)-3,3,3-trifluoro-2-hydroxypropyl]-4,5-dihydro-1H-1,2,4-triazol-1-yl}methyl)-1H-1,2,4-triazol-1-yl]-N-(1,3-thiazol-2-yl)benzamide]
19 | 210 | 5.5 | 38.2 | NC(=O)CNC(=O)c1ccccc1-n1cnc(Cn2nc(-c3ccc(Cl)cc3)n(C[C@H](O)C(F)(F)F)c2=O)n1 [Example 225, N-(2-Amino-2-oxoethyl)-2-[3-({3-(4-chlorophenyl)-5-oxo-4-[(2S)-3,3,3-trifluoro-2-hydroxypropyl]-4,5-dihydro-1H-1,2,4-triazol-1-yl}methyl)-1H-1,2,4-triazol-1-yl]benzamide]
20 | 7.45 | 1.3 | 5.7 | O=C(Nc1ccc(Cl)nc1)c1ccccc1-n1cnc(Cn2nc(-c3ccc(Cl)cc3)n(C[C@H](O)C(F)(F)F)c2=O)n1 [Example 226, 2-[3-({3-(4-Chlorophenyl)-5-oxo-4-[(2S)-3,3,3-trifluoro-2-hydroxypropyl]-4,5-dihydro-1H-1,2,4-triazol-1-yl}methyl)-1H-1,2,4-triazol-1-yl]-N-(6-chloropyridin-3-yl)benzamide]
